Common to all, as to format: biochemical
One test concerns the target T1, Btk (Homo sapiens, UniProt Q06187).
T1 construct: purified from insect cells as a full-length construct containing a N-terminal 6×-His tag; 6xHis (N); host or cells: insect cells (baculovirus Sf21 in Method B)
Kind of test: Btk in vitro inhibitory activity (one of Methods A, B, C). Particulars: determined in one of three in vitro assays (Examples 125-127). In outline: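 Values come from one of three formats: TR-FRET (665/615 nm ratio; Ki(app) converted to IC50 with [ATP]=Km, 0.5 nM Btk), mobility-shift product/sum ratio over 12 concentrations with 4-parameter fit, or radiometric filter binding using His-tagged full-length human Btk (8 nM), 0.2 mg/mL poly-Glu-Tyr, 1 μM ATP, 120 min RT.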

In the next test the target is T2, BMX (Homo sapiens, UniProt P51813).
T2 sequence (P51813 1-675): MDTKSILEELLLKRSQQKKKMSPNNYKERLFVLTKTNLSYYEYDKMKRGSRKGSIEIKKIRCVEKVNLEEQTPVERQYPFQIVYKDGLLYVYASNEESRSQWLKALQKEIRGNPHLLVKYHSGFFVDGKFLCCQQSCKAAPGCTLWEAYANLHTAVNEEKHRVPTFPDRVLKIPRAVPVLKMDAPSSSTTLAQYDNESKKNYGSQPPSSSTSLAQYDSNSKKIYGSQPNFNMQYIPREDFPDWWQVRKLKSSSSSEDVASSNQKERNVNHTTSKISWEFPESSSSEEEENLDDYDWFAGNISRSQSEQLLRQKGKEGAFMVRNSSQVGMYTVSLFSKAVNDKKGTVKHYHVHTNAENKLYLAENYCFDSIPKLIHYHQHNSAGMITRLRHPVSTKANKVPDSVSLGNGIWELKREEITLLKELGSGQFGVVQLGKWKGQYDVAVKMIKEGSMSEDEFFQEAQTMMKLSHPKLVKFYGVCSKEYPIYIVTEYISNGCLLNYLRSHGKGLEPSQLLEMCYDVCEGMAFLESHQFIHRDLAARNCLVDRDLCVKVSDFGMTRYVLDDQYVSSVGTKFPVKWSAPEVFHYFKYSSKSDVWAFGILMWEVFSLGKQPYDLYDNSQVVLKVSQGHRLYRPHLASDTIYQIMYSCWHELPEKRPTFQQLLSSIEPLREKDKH
Kind of test: BMX kinase inhibition.

The next test concerns the target T3, Tec (Homo sapiens, UniProt P42680).
T3 sequence (P42680 1-631): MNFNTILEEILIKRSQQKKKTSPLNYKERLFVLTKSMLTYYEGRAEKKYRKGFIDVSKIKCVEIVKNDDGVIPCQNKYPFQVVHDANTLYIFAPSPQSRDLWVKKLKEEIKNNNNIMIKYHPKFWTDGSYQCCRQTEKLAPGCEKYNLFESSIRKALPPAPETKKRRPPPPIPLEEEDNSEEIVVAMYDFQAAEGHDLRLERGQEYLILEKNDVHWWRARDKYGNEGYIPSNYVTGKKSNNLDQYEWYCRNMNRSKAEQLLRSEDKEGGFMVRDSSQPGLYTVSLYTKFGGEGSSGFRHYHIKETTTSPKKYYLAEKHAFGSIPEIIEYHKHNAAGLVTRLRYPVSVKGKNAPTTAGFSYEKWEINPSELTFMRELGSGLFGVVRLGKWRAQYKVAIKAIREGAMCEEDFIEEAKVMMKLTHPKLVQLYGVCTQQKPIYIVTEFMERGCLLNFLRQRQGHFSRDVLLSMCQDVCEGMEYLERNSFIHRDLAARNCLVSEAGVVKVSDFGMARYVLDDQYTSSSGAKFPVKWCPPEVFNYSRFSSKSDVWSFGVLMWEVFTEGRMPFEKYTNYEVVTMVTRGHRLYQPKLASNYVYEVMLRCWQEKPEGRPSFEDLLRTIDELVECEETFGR
Kind of test: Tec kinase inhibition.

The target of the next test is Lyn (Homo sapiens, UniProt P07948). Description: Lyn kinase inhibition.
The target in another test is C-src (Homo sapiens, UniProt P12931). Kind of test: C-src kinase inhibition.
In the next test the target is Lck (Homo sapiens, UniProt P06239). Description: Lck kinase inhibition. In outline: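 Signal is the ratio of fluorescence at 665 versus 615 nm (excitation 330 nm), read after stopping kinase reactions with EDTA and a one-hour incubation with detection reagents, Eu anti-p-Tyr100 at 2.5 nM and streptavidin-APC at 100 nM. Inhibition reported as IC50 computed from fitted Ki(app), [ATP]=Km.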

The target in the next test is BLK (Homo sapiens, UniProt P51451). Description: BLK kinase inhibition.
Another test deals with EGFR (Homo sapiens, UniProt P00533). Description: EGFR kinase inhibition.
The target in the next test is RET (Homo sapiens, UniProt P07949). Description: RET kinase inhibition.
A further test has as its target CSK (Homo sapiens, UniProt P41240). Kind of test: CSK kinase inhibition.

As a reminder, the IC50 is the point on the concentration scale where inhibition reaches its midpoint. A higher IC50 goes with a need for much substance.

Structures are written as SMILES.

Chain of Lck (P06239 whole entry): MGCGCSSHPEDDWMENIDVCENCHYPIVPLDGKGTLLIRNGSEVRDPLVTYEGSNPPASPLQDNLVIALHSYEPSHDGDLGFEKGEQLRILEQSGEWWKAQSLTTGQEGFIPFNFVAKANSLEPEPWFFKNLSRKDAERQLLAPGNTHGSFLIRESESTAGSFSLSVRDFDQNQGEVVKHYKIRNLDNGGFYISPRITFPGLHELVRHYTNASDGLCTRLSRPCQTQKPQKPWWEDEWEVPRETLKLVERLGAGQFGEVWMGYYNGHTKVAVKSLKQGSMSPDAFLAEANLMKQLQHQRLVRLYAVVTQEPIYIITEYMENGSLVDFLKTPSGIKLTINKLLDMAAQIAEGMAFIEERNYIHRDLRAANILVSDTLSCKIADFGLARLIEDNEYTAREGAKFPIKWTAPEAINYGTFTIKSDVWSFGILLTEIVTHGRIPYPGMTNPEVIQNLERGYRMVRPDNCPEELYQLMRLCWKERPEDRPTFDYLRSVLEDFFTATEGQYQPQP
Chain of C-src (P12931 whole entry): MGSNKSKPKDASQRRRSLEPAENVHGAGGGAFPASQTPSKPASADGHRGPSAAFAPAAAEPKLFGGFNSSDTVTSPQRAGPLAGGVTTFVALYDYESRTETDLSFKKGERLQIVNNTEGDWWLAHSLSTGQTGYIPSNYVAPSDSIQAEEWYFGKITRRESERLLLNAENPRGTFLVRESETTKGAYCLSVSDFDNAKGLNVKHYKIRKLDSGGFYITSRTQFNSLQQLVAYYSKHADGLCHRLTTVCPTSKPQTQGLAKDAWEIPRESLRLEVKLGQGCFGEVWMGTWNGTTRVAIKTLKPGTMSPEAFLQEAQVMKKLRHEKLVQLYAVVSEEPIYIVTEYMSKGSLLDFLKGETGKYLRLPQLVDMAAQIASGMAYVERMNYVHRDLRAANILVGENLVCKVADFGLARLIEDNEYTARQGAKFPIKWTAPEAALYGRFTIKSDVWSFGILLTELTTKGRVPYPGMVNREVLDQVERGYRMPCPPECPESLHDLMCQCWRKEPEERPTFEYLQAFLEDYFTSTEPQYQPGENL
Chain of EGFR (P00533 25-1210): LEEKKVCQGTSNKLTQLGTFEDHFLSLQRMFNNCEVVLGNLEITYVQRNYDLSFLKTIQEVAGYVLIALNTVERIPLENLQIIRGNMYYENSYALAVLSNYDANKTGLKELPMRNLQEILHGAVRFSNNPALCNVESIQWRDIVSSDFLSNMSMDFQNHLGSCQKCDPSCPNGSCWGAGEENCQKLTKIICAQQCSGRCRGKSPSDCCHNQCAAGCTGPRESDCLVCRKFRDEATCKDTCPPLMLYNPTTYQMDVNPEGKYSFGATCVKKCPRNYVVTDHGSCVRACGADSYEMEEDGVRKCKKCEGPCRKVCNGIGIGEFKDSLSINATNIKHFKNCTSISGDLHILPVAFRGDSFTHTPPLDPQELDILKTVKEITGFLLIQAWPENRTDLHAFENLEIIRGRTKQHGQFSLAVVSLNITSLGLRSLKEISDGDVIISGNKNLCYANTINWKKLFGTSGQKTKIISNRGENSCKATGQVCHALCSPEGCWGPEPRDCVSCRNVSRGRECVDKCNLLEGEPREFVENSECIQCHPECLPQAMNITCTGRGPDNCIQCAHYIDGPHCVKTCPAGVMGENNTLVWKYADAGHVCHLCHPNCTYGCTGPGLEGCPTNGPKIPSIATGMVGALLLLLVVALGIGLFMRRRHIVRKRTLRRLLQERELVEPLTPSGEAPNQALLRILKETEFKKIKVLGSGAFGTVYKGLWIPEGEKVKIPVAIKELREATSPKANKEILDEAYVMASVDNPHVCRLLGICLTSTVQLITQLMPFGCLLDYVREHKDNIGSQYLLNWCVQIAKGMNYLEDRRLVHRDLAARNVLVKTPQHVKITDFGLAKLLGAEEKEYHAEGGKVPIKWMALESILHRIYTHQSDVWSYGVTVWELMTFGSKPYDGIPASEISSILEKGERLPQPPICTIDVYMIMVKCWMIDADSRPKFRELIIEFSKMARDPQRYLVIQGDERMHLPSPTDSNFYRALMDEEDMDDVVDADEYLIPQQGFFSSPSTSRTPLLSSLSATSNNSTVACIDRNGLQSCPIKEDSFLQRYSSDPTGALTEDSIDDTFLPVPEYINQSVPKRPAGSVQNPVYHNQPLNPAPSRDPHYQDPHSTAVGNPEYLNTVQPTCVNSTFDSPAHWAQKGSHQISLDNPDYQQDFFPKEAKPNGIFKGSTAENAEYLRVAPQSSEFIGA
T1 sequence (Q06187 whole entry): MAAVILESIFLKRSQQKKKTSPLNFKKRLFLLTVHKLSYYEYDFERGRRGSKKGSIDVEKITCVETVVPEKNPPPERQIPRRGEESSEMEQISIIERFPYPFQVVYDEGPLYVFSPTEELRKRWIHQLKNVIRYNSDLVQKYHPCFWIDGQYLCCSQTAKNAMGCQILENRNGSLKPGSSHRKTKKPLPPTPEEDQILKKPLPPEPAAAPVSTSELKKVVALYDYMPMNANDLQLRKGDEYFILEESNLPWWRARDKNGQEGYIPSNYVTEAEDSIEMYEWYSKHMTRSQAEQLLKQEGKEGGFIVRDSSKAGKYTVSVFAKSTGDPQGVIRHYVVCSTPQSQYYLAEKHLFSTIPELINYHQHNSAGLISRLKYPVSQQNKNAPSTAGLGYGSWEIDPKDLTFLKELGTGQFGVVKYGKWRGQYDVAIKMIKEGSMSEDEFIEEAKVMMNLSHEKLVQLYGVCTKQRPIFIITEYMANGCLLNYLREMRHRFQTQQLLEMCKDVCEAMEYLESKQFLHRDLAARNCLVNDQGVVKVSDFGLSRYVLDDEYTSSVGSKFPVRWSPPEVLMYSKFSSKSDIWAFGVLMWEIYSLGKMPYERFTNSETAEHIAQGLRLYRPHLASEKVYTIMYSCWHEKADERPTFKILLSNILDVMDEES
Chain of BLK (P51451 whole entry): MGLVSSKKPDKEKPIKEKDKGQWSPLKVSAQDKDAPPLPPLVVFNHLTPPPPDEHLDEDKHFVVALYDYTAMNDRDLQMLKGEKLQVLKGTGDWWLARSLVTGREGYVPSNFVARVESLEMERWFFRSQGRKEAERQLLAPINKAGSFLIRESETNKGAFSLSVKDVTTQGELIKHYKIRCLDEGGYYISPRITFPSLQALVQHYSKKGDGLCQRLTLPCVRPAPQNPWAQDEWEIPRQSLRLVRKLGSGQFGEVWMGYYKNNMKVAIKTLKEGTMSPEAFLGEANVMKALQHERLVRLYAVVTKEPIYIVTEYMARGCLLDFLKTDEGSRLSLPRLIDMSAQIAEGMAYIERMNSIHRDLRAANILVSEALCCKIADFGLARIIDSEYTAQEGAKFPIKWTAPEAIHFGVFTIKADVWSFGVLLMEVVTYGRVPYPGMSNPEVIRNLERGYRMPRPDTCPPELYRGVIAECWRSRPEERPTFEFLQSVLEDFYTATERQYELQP
Chain of CSK (P41240 whole entry): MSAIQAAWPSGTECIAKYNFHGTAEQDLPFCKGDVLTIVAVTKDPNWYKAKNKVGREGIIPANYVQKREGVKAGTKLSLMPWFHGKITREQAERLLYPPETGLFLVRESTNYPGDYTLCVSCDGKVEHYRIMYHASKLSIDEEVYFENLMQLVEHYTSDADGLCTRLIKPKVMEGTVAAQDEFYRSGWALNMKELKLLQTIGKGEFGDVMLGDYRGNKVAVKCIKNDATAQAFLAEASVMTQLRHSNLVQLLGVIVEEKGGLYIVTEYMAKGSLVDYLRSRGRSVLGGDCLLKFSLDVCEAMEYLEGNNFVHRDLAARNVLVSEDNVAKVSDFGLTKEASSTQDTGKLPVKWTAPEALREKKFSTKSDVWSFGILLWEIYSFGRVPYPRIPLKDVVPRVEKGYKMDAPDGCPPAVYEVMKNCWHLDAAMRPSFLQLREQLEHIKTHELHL
Chain of Lyn (P07948 whole entry): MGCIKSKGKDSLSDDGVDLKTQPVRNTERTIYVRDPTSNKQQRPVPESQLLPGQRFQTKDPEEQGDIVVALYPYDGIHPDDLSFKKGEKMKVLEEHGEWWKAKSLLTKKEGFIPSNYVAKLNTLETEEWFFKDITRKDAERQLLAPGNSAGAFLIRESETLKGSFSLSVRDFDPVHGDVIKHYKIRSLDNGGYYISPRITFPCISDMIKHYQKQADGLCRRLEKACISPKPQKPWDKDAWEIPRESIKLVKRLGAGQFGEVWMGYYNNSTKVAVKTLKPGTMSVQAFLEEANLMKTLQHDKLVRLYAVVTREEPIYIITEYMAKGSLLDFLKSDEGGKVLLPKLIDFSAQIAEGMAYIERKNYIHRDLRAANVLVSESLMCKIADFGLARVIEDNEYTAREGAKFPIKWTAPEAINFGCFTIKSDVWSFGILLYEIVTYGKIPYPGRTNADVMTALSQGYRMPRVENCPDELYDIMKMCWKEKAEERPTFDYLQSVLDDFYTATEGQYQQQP

With `CN(C)C/C=C/C(=O)N(C)c1ccc(-n2nc(-c3ccc(Cl)cc3)c3c(N)ncnc32)cc1` [Example 14, (E)-N-(4-(4-amino-3-(4-chlorophenyl)-1H-pyrazolo[3,4-d]pyrimidin-1-yl)phenyl)-4-(dimethylamino)-N-methylbut-2-enamide], the half-inhibitory concentration (IC50) at Btk is less than 100 nM; against BMX, less than 100 nM; against Tec it was less than 100 nM; at Lyn, 100 to 1000 nM; on C-src, less than 100 nM; on Lck, 100 to 1000 nM. For the same molecule, the 50% inhibitory concentration (IC50) on BLK, against EGFR, against RET and at CSK was 100 to 1000 nM throughout.

In the case of `CN(C)C/C=C/C(=O)N(C)c1cccc(-n2nc(-c3ccc(Cl)cc3)c3c(N)ncnc32)c1` [Example 21, (E)-N-(3-(4-amino-3-(4-chlorophenyl)-1H-pyrazolo[3,4-d]pyrimidin-1-yl)phenyl)-4-(dimethylamino)-N-methylbut-2-enamide], the IC50 on Btk is less than 100 nM; against BMX, less than 100 nM; against Tec, less than 100 nM; against Lyn, more than 1000 nM; against C-src, 100 to 1000 nM; at Lck it was 100 to 1000 nM. In addition, the IC50 against BLK is less than 100 nM; on EGFR, less than 100 nM; on RET, more than 1000 nM; against CSK it was more than 1000 nM.

As to `COc1cc(-c2nn(-c3cccc(N(C)C(=O)/C=C/CN(C)C4CCC4)c3)c3ncnc(N)c23)ccc1C` [Example 23, (E)-N-(3-(4-amino-3-(3-methoxy-4-methylphenyl)-1H-pyrazolo[3,4-d]pyrimidin-1-yl)phenyl)-4-(cyclobutyl(methyl)amino)-N-methylbut-2-enamide], the IC50 against Btk was less than 100 nM; on BMX, less than 100 nM; at Tec, less than 100 nM; at Lyn it was less than 100 nM; on C-src, less than 100 nM; against Lck it was 100 to 1000 nM. The IC50 is less than 100 nM against BLK, less than 100 nM against EGFR, more than 1000 nM against RET and more than 1000 nM on CSK.

For `CN(C)C/C=C/C(=O)Nc1cccc(-n2nc(-c3ccc(Cl)cc3)c3c(N)ncnc32)c1` [Example 27, (E)-N-(3-(4-amino-3-(4-chlorophenyl)-1H-pyrazolo[3,4-d]pyrimidin-1-yl)phenyl)-4-(dimethylamino)but-2-enamide], the IC50 is less than 100 nM against Btk; less than 100 nM against BMX; less than 100 nM against Tec; 100 to 1000 nM at Lyn; less than 100 nM against C-src; less than 100 nM against Lck. Further, the IC50 was less than 100 nM against BLK, less than 100 nM at EGFR, 100 to 1000 nM at RET and 100 to 1000 nM on CSK.

For the origin of these results see patent US9546172B2, “Pyrazolo[3,4-d]pyrimidine and pyrazolo[2,3-d]pyrimidine compounds as kinase inhibitors” (Pharmacyclics LLC, priority 2011, dated 2017).
